In patent US20230227442A1, “HETEROALKYL DIHYDROQUINOLINE SULFONAMIDE COMPOUNDS” (AMGEN INC., priority 2020, published 2023):

Legend:
Human Nav1.7 = molecular target: T1, Human Nav1.7 (Homo sapiens, UniProt Q15858); assay: Ionworks Barracuda (IWB) automated patch clamp assay; assay type: cell-based; conditions: population patch clamp, HEK cells, 4 min compound incubation at -20 mV; read-out: hNaV1.7 IWB-U IC50
T1 construct: expressed in transfected cells; host or cells: Spiking HEK cells (without Kir2.1 transfection)
T1 sequence (Q15858 whole entry): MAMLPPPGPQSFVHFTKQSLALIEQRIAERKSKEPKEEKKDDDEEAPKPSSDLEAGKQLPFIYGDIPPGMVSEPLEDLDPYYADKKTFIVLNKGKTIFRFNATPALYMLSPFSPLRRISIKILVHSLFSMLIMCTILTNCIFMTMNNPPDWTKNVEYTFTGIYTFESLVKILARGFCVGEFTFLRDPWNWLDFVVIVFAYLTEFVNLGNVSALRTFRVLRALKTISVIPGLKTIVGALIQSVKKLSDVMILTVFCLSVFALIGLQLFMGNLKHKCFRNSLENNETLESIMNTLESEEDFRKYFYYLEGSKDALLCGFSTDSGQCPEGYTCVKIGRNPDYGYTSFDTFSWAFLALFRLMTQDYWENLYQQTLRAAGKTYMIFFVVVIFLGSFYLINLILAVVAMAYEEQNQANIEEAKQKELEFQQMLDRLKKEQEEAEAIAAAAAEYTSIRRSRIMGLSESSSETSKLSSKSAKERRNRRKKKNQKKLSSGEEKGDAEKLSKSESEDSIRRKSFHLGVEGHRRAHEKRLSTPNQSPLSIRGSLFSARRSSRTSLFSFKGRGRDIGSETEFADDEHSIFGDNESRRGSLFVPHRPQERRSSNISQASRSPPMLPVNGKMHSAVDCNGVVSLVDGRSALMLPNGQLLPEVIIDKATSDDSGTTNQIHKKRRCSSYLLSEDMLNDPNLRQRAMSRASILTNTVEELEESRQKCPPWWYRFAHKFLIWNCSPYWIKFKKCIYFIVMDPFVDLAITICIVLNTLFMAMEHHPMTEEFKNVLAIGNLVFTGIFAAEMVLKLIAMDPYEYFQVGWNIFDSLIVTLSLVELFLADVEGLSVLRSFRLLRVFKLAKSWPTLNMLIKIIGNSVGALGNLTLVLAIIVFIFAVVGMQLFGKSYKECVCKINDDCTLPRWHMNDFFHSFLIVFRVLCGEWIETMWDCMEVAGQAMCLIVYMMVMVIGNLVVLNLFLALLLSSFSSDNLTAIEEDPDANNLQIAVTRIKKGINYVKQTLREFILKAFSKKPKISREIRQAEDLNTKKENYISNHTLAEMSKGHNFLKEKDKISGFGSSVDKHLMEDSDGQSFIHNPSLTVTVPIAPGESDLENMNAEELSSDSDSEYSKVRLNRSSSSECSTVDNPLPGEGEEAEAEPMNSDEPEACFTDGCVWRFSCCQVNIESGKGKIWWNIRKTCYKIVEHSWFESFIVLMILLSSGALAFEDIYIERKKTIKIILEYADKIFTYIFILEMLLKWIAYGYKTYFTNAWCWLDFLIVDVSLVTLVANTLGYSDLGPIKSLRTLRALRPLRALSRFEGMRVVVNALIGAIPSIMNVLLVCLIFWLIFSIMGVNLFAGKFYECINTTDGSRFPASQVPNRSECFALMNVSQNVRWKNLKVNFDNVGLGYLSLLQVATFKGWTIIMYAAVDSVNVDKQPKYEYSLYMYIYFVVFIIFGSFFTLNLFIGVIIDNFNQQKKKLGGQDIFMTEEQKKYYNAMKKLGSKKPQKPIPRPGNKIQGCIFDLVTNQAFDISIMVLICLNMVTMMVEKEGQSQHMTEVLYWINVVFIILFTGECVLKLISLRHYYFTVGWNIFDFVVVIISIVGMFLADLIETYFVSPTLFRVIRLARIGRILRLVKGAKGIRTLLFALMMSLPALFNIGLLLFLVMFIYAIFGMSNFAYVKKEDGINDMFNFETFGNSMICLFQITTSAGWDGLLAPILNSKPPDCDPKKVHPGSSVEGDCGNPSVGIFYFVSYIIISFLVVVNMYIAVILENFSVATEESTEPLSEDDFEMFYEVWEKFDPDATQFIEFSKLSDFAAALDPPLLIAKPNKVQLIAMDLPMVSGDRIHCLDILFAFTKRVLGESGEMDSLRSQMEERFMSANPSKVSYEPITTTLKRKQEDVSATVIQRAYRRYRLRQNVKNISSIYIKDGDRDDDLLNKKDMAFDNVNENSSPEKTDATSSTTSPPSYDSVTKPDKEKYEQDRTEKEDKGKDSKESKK
Description: Ionworks Barracuda Automated Patch Clamp Assay (Same Protocol for Both Human and Mouse)
Human Nav1.7 currents were recorded in population patch-clamp mode with the IWB automated electrophysiology system (Molecular Devices, LLC, Sunnyvale, Calif.). Spiking HEK cells (without Kir2.1 transfection) were cultured and prepared for recordings as previously described for IonWorks Quattro testing^1. The external solution consisted of the following (in mM): NaCl 140, KCl 5, CaCl2 2, MgCl2 1, HEPES 10, and glucose 11, pH 7.4, with N-methyl-D-glucamine at 320 mOsmol. The internal solution consisted of the following (in mM): KCl 70, KF 70, MgCl2 0.25, HEDTA 5, and HEPES 10, pH 7.25, with Nmethyl-D-glucamine, 300 mOsmol. From a holding potential of −110 mV, currents were elicited by a train of 26 depolarizations of 150 ms duration to −20 mV at a frequency of 5 Hz. Cells were then clamped to −20 mV for a period of 4 minutes in the presence of a single concentration of test compound. Following this compound incubation period, cells were clamped to −110 mV for three seconds to recover unbound channels and put through the same 26 pulse voltage protocol as above. Peak inward current during the 26th pulse to −20 mV in the presence of compound was divided by the peak inward current evoked by the 26th pulse to −20 mV in the absence of compound to determine percent inhibition. Concentration-response curves of percent inhibition as a function of concentration were generated to calculate IC50 values as described in Kornecook, T. J.; Yin, R.; Altmann, S.; et al. Pharmacologic Characterization of AMG8379, a Potent and Selective Small Molecule Sulfonamide Antagonist of the Voltage-Gated Sodium Channel NaV1. 7. J. Pharmacol. Exp. Ther. 2017, 362, 146-160.

CYP3A4 = assay: Human CYP 3A4 induction assay (mRNA, cryopreserved human hepatocytes); assay type: in vitro ADME; conditions: 72 hours, percent of control (POC); for CYP3A4 mRNA Induct Hu 2 uM POC: 2 uM test compound; for CYP3A4 mRNA Induct Hu 10 uM POC: 10 uM test compound
Description: Human CYP 3A4 Induction Assay
Cryopreserved human hepatocytes were seeded in 96-well collagen coated plates at 70,000 cells per well in hepatocyte plating media (HPM, final concentrations: lx Dulbecco's Modified Eagle's Medium, 0.1 μM dexamethasone, 10% fetal bovine serum, lx ITS, 1×PSG) followed by incubation at 37° C. under 5% CO2 and 90% relative humidity for 2 days to allow hepatocytes to form a confluent layer. On Day 3, hepatocytes were treated with either test compound or rifampin (20 μM, positive control for CYP3A induction) prepared in hepatocyte incubation media ((HIM, final concentrations: 1× William's Medium E, 0.1 μM dexamethasone, 1×ITS, 1×PSG). Treatment was performed for 72 hours with either 2 concentrations (2 μM or 10 μM) or a range of concentrations (0.001 μM to 100 μM) of the test compound to obtain full dose-response curve. Fresh media containing the relevant concentrations of the test compound was replaced every day until the samples were processed. After 72 hours of incubation, samples were processed for mRNA analysis using bDNA technology using manufacturer's instructions (Affymetrix, Fremont, Calif.). Cell viability was tested at the end of the experiment using MTT assay kit (Roche Diagnostics, Basel, Switzerland). Data was analyzed and presented as percent of control (POC) and Emax and EC50 obtained when appropriate according to guidance from Center for Drug Evaluation and Research (CDER), 2006, Guidance for Industry, Drug Interaction Studies—Study Design, Data Analysis, and Implications for Dosing and Labeling.
Cryopreserved human hepatocytes were seeded in 96-well collagen coated plates at 70,000 cells per well in hepatocyte plating media (HPM, final concentrations: lx Dulbecco's Modified Eagle's Medium, 0.1 μM dexamethasone, 10% fetal bovine serum, lx ITS, 1×PSG) followed by incubation at 37° C. under 5% CO2 and 90% relative humidity for 2 days to allow hepatocytes to form a confluent layer. On Day 3, hepatocytes were treated with either test compound or rifampin (20 μM, positive control for CYP3A induction) prepared in hepatocyte incubation media ((HIM, final concentrations: 1× William's Medium E, 0.1 μM dexamethasone, 1×ITS, 1×PSG). Treatment was performed for 72 hours with either 2 concentrations (2 μM or 10 μM) or a range of concentrations (0.001 μM to 100 μM) of the test compound to obtain full dose-response curve. Fresh media containing the relevant concentrations of the test compound was replaced every day until the samples were processed. After 72 hours of incubation, samples were processed for mRNA analysis using bDNA technology using manufacturer's instructions (Affymetrix, Fremont, Calif.). Cell viability was tested at the end of the experiment using MTT assay kit (Roche Diagnostics, Basel, Switzerland). Data was analyzed and presented as percent of control (POC) and Emax and EC50 obtained when appropriate, as described in Halladay, J. et al, 2012, An “all-inclusive” 96-well cytochrome P450 induction method: Measuring enzyme activity, mRNA levels, protein levels, and cytotoxicity from one well using cryopreserved human hepatocytes, Pharmacological and Toxicological Methods, 66:270-275.

COc1cc(OCCC(F)(F)F)c(F)cc1-n1c(=O)ccc2cc(S(=O)(=O)Nc3ccon3)ccc21 (atropisomer, axis not shown; (P)) [Example 20, (P)-1-(5-fluoro-2-methoxy-4-(3,3,3-trifluoropropoxy)phenyl)-N-(isoxazol-3-yl)-2-oxo-1,2-dihydroquinoline-6-sulfonamide]
IC50 (Human Nav1.7): 30 nM | CYP3A4 mRNA Induct Hu 2 uM POC (CYP3A4): 10.8% | CYP3A4 mRNA Induct Hu 10 uM POC (CYP3A4): 29.6%

COc1cc(O[C@H](C)C(F)(F)F)c(F)cc1-n1c(=O)ccc2cc(S(=O)(=O)Nc3ccon3)c(F)cc21 (atropisomer, axis not shown; (P)) [Example 16, (P)-(R)-7-fluoro-1-(5-fluoro-2-methoxy-4-((1,1,1-trifluoropropan-2-yl)oxy)phenyl)-N-(isoxazol-3-yl)-2-oxo-1,2-dihydroquinoline-6-sulfonamide]
IC50 (Human Nav1.7): 24 nM | CYP3A4 mRNA Induct Hu 2 uM POC (CYP3A4): 3.9% | CYP3A4 mRNA Induct Hu 10 uM POC (CYP3A4): 7.2%

COc1cc(CCC(F)(F)F)c(F)cc1-n1c(=O)ccc2cc(S(=O)(=O)Nc3ccon3)ccc21 (atropisomer, axis not shown; (P)) [Compound A, (P)-1-(5-fluoro-2-methoxy-4-(3,3,3-trifluoropropyl)phenyl)-N-(1,2-oxazol-3-yl)-2-oxo-1,2-dihydro-6-quinolinesulfonamide, reference compound]
IC50 (Human Nav1.7): 14 nM | CYP3A4 mRNA Induct Hu 2 uM POC (CYP3A4): 41.9% | CYP3A4 mRNA Induct Hu 10 uM POC (CYP3A4): 76.1%

COc1cc(O[C@@H](C)C(F)(F)F)c(F)cc1-n1c(=O)ccc2cc(S(=O)(=O)Nc3ccon3)c(F)cc21 (atropisomer, axis not shown; (P)) [Example 17, (P)-(S)-7-fluoro-1-(5-fluoro-2-methoxy-4-((1,1,1-trifluoropropan-2-yl)oxy)phenyl)-N-(isoxazol-3-yl)-2-oxo-1,2-dihydroquinoline-6-sulfonamide]
IC50 (Human Nav1.7): 27 nM | CYP3A4 mRNA Induct Hu 2 uM POC (CYP3A4): 16.3% | CYP3A4 mRNA Induct Hu 10 uM POC (CYP3A4): 39.8%

COc1cc(COC(F)(F)F)c(F)cc1-n1c(=O)ccc2cc(S(=O)(=O)Nc3ccon3)c(F)cc21 (atropisomer, axis not shown; (P)) [Example 6, (P)-7-fluoro-1-(5-fluoro-2-methoxy-4-((trifluoromethoxy)methyl)phenyl)-N-(isoxazol-3-yl)-2-oxo-1,2-dihydroquinoline-6-sulfonamide]
IC50 (Human Nav1.7): 11 nM | CYP3A4 mRNA Induct Hu 2 uM POC (CYP3A4): 18.3% | CYP3A4 mRNA Induct Hu 10 uM POC (CYP3A4): 30.1%

COc1cc(O[C@@H](C)C(F)(F)F)c(F)cc1-n1c(=O)ccc2cc(S(=O)(=O)Nc3ncccn3)ccc21 (atropisomer, axis not shown; (P)) [Example 24, (P)-(S)-1-(5-fluoro-2-methoxy-4-((1,1,1-trifluoropropan-2-yl)oxy)phenyl)-2-oxo-N-(pyrimidin-2-yl)-1,2-dihydroquinoline-6-sulfonamide]
IC50 (Human Nav1.7): 68 nM | CYP3A4 mRNA Induct Hu 2 uM POC (CYP3A4): 0.8% | CYP3A4 mRNA Induct Hu 10 uM POC (CYP3A4): 1.2%

COc1cc(SC(F)(F)F)c(F)cc1-n1c(=O)ccc2cc(S(=O)(=O)Nc3ccon3)ccc21 (atropisomer, axis not shown; (P)) [Example 8, (P)-1-(5-fluoro-2-methoxy-4-((trifluoromethyl)thio)phenyl)-N-(isoxazol-3-yl)-2-oxo-1,2-dihydroquinoline-6-sulfonamide]
IC50 (Human Nav1.7): 15 nM | CYP3A4 mRNA Induct Hu 2 uM POC (CYP3A4): 6.1% | CYP3A4 mRNA Induct Hu 10 uM POC (CYP3A4): 24.5%

COc1cc(OC(F)(F)F)c(F)cc1-n1c(=O)ccc2cc(S(=O)(=O)Nc3ccon3)ccc21 (atropisomer, axis not shown; (P)) [Example 9, (P)-1-(5-fluoro-2-methoxy-4-(trifluoromethoxy)phenyl)-N-(isoxazol-3-yl)-2-oxo-1,2-dihydroquinoline-6-sulfonamide]
IC50 (Human Nav1.7): 21 nM | CYP3A4 mRNA Induct Hu 2 uM POC (CYP3A4): 7.8% | CYP3A4 mRNA Induct Hu 10 uM POC (CYP3A4): 22.2%

COc1cc(O[C@H](C)C(F)(F)F)c(F)cc1-n1c(=O)ccc2cc(S(=O)(=O)Nc3ccon3)ccc21 (atropisomer, axis not shown; (P)) [Example 21, (P)-(R)-1-(5-fluoro-2-methoxy-4-((1,1,1-trifluoropropan-2-yl)oxy)phenyl)-N-(isoxazol-3-yl)-2-oxo-1,2-dihydroquinoline-6-sulfonamide]
IC50 (Human Nav1.7): 32 nM | CYP3A4 mRNA Induct Hu 2 uM POC (CYP3A4): 0.4% | CYP3A4 mRNA Induct Hu 10 uM POC (CYP3A4): 1.8%

COc1cc(OCC(F)(F)F)c(F)cc1-n1c(=O)c(F)cc2cc(S(=O)(=O)Nc3ccon3)ccc21 (atropisomer, axis not shown; (P)) [Example 25, (P)-3-fluoro-1-(5-fluoro-2-methoxy-4-(2,2,2-trifluoroethoxy)phenyl)-N-(isoxazol-3-yl)-2-oxo-1,2-dihydroquinoline-6-sulfonamide]
IC50 (Human Nav1.7): 102 nM | CYP3A4 mRNA Induct Hu 2 uM POC (CYP3A4): 11.5% | CYP3A4 mRNA Induct Hu 10 uM POC (CYP3A4): 38.0%

COc1cc(OCC(F)(F)F)c(Cl)cc1-n1c(=O)ccc2cc(S(=O)(=O)Nc3ccon3)ccc21 (atropisomer, axis not shown; (P)) [Example 15, (P)-1-(5-chloro-2-methoxy-4-(2,2,2-trifluoroethoxy)phenyl)-N-(isoxazol-3-yl)-2-oxo-1,2-dihydroquinoline-6-sulfonamide]
IC50 (Human Nav1.7): 23 nM | CYP3A4 mRNA Induct Hu 2 uM POC (CYP3A4): 7.7% | CYP3A4 mRNA Induct Hu 10 uM POC (CYP3A4): 20.2%

COc1cc(SC(F)(F)F)c(F)cc1-n1c(=O)ccc2cc(S(=O)(=O)Nc3ccon3)c(F)cc21 (atropisomer, axis not shown; (P)) [Example 7, (P)-7-fluoro-1-(5-fluoro-2-methoxy-4-((trifluoromethyl)thio)phenyl)-N-(isoxazol-3-yl)-2-oxo-1,2-dihydroquinoline-6-sulfonamide]
IC50 (Human Nav1.7): 11 nM | CYP3A4 mRNA Induct Hu 2 uM POC (CYP3A4): 20.9% | CYP3A4 mRNA Induct Hu 10 uM POC (CYP3A4): 54.2%

COc1cc(O[C@H](C)C(F)(F)F)c(F)cc1-n1c(=O)ccc2cc(S(=O)(=O)Nc3ncccn3)ccc21 [Example 13, P-(R)-1-(5-fluoro-2-methoxy-4-((1,1,1-trifluoropropan-2-yl)oxy)phenyl)-2-oxo-N-(pyrimidin-2-yl)-1,2-dihydroquinoline-6-sulfonamide]
IC50 (Human Nav1.7): 21 nM | CYP3A4 mRNA Induct Hu 2 uM POC (CYP3A4): 7.0% | CYP3A4 mRNA Induct Hu 10 uM POC (CYP3A4): 35.3%
